The results in this text go back to US20260007681A1, “INDOLE DERIVATIVES AS ESTROGEN RECEPTOR DEGRADERS” (REGENTS OF THE UNIVERSITY OF MICHIGAN, priority 2022, published 2026).

In the experiment the target is ER (Homo sapiens (Human), UniProt P03372). Description: Western blot analysis (Compounds B1-B278). It counts as cell-based. The conditions noted are these: ER degradation by traditional Western blot; DC50 classes. The essentials:
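Relative target-protein levels come from densitometry of immunoblots, normalized to GAPDH. Lysates from treated cells were prepared in RIPA buffer (pH 7.6) containing protease inhibitors, and equal protein amounts, checked by BCA, were separated on 10% gels and blotted onto PVDF.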

Chain of ER (P03372 whole entry): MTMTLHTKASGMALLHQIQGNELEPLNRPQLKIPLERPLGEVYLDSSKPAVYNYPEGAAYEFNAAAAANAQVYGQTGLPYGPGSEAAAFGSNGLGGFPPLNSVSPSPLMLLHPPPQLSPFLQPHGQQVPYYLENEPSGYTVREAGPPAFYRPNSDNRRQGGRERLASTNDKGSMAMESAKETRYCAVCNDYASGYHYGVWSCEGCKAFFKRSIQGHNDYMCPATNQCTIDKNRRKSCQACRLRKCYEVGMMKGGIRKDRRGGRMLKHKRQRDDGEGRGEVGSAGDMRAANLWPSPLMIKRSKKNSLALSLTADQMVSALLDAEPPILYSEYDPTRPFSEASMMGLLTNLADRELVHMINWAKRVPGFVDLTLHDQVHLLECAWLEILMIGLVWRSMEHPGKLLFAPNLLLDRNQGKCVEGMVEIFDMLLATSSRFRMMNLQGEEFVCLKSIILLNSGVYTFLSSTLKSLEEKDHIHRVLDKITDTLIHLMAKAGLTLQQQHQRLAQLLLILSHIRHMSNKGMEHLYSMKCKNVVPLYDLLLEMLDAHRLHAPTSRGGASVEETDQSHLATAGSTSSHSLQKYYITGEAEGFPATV

Regarding `C[C@@H]1Cc2c([nH]c3ccccc23)[C@@H](c2c(F)cc(-c3cnc(C(=O)N4CCC(N5Cc6cc7c(cc6C5)C(=O)N(C5CCC(=O)NC5=O)C7=O)CC4)nc3)cc2F)N1CC(F)F` (stereo partly drawn) [Compound B86, 6-(1-(5-(4-((1R,3R)-2-(2,2-difluoroethyl)-3-methyl-2,3,4,9-tetrahydro-1H-pyrido[3,4-b]indol-1-yl)-3,5-difluorophenyl)pyrimidine-2-carbonyl)piperidin-4-yl)-2-(2,6-dioxopiperidin-3-yl)-6,7-dihydropyrrolo[3,4-f]isoindole-1,3(2H,5H)-dione], the “Traditional Western Degradation Potency” value is on record as “B (“B”: 10-100 nM)”. `C[C@@H]1Cc2c([nH]c3ccccc23)[C@@H](c2c(F)cc(-c3ccc(C(=O)N4CCC(N5Cc6cc7c(cc6C5)C(=O)N(C5CCC(=O)NC5=O)C7=O)CC4)nc3)cc2F)N1CC(F)F` (stereo partly drawn) [Compound B87, 6-(1-(5-(4-((1R,3R)-2-(2,2-difluoroethyl)-3-methyl-2,3,4,9-tetrahydro-1H-pyrido[3,4-b]indol-1-yl)-3,5-difluorophenyl)picolinoyl)piperidin-4-yl)-2-(2,6-dioxopiperidin-3-yl)-6,7-dihydropyrrolo[3,4-f]isoindole-1,3(2H,5H)-dione]: the “Traditional Western Degradation Potency” value is listed as “B (“B”: 10-100 nM)”. Regarding `C[C@@H]1Cc2c([nH]c3ccccc23)[C@@H](c2c(F)cc(-c3ccc(CN4CCC(N5Cc6cc7c(cc6C5)C(=O)N(C5CCC(=O)NC5=O)C7=O)CC4)nc3)cc2F)N1CC(F)F` (stereo partly drawn) [Compound B88, 6-(1-((5-(4-((1R,3R)-2-(2,2-difluoroethyl)-3-methyl-2,3,4,9-tetrahydro-1H-pyrido[3,4-b]indol-1-yl)-3,5-difluorophenyl)pyridin-2-yl)methyl)piperidin-4-yl)-2-(2,6-dioxopiperidin-3-yl)-6,7-dihydropyrrolo[3,4-f]isoindole-1,3(2H,5H)-dione], the “Traditional Western Degradation Potency” value was “C (“C”: >100 nM)”. The same measure for `C[C@@H]1Cc2c([nH]c3ccccc23)[C@@H](c2c(F)cc(-c3ccc(C(=O)N4CCC(N5Cc6cc7c(cc6C5)C(=O)N(C5CCC(=O)NC5=O)C7=O)CC4)cn3)cc2F)N1CC(F)F` (stereo partly drawn) [Compound B89, 6-(1-(6-(4-((1R,3R)-2-(2,2-difluoroethyl)-3-methyl-2,3,4,9-tetrahydro-1H-pyrido[3,4-b]indol-1-yl)-3,5-difluorophenyl)nicotinoyl)piperidin-4-yl)-2-(2,6-dioxopiperidin-3-yl)-6,7-dihydropyrrolo[3,4-f]isoindole-1,3(2H,5H)-dione]: “A (“A”: <10 nM)”; for `C[C@@H]1Cc2c([nH]c3ccccc23)[C@@H](c2c(F)cc(-c3ccc(C(=O)N4CCC(N5Cc6cc7c(cc6C5)C(=O)N(C5CCC(=O)NC5=O)C7=O)CC4)nn3)cc2F)N1CC(F)F` (stereo partly drawn) [Compound B91, 6-(1-(6-(4-((1R,3R)-2-(2,2-difluoroethyl)-3-methyl-2,3,4,9-tetrahydro-1H-pyrido[3,4-b]indol-1-yl)-3,5-difluorophenyl)pyridazine-3-carbonyl)piperidin-4-yl)-2-(2,6-dioxopiperidin-3-yl)-6,7-dihydropyrrolo[3,4-f]isoindole-1,3(2H,5H)-dione]: “B (“B”: 10-100 nM)”. Take `C[C@@H]1Cc2c([nH]c3ccccc23)[C@@H](c2c(F)cc(-c3ncc(C(=O)N4CCC(N5Cc6cc7c(cc6C5)C(=O)N(C5CCC(=O)NC5=O)C7=O)CC4)cn3)cc2F)N1CC(F)F` (stereo partly drawn) [Compound B92, 6-(1-(2-(4-((1R,3R)-2-(2,2-difluoroethyl)-3-methyl-2,3,4,9-tetrahydro-1H-pyrido[3,4-b]indol-1-yl)-3,5-difluorophenyl)pyrimidine-5-carbonyl)piperidin-4-yl)-2-(2,6-dioxopiperidin-3-yl)-6,7-dihydropyrrolo[3,4-f]isoindole-1,3(2H,5H)-dione]: the “Traditional Western Degradation Potency” value is on record as “A (“A”: <10 nM)”. As for `C[C@@H]1Cc2c([nH]c3ccccc23)[C@@H](c2c(F)cc(-c3ccc(C(=O)N4CCC(N5Cc6cc7c(cc6C5)C(=O)N(C5CCC(=O)NC5=O)C7=O)CC4)cc3)cc2F)N1CC(F)F` (stereo partly drawn) [Compound B93, 6-(1-(4′-((1R,3R)-2-(2,2-difluoroethyl)-3-methyl-2,3,4,9-tetrahydro-1H-pyrido[3,4-b]indol-1-yl)-3′,5′-difluoro-[1,1′-biphenyl]-4-carbonyl)piperidin-4-yl)-2-(2,6-dioxopiperidin-3-yl)-6,7-dihydropyrrolo[3,4-f]isoindole-1,3(2H,5H)-dione], the “Traditional Western Degradation Potency” value is “A (“A”: <10 nM)”. In the case of `C[C@@H]1Cc2c([nH]c3ccccc23)[C@@H](c2c(F)cc(C3CCN(C(=O)C4CCC(N5Cc6cc7c(cc6C5)C(=O)N(C5CCC(=O)NC5=O)C7=O)CC4)CC3)cc2F)N1CC(F)F` (stereo partly drawn) [Compound B94, 6-(4-(4-(4-((1R,3R)-2-(2,2-difluoroethyl)-3-methyl-2,3,4,9-tetrahydro-1H-pyrido[3,4-b]indol-1-yl)-3,5-difluorophenyl)piperidine-1-carbonyl)cyclohexyl)-2-(2,6-dioxopiperidin-3-yl)-6,7-dihydropyrrolo[3,4-f]isoindole-1,3(2H,5H)-dione] it was “B (“B”: 10-100 nM)”. The same measure for `C[C@@H]1Cc2c([nH]c3ccccc23)[C@@H](c2c(F)cc(C3CCN(C[C@H]4CC[C@H](N5Cc6cc7c(cc6C5)C(=O)N(C5CCC(=O)NC5=O)C7=O)CC4)CC3)cc2F)N1CC(F)F` (stereo partly drawn) [Compound B95, 6-((1R,4r)-4-((4-(4-((1R,3R)-2-(2,2-difluoroethyl)-3-methyl-2,3,4,9-tetrahydro-1H-pyrido[3,4-b]indol-1-yl)-3,5-difluorophenyl)piperidin-1-yl)methyl)cyclohexyl)-2-(2,6-dioxopiperidin-3-yl)-6,7-dihydropyrrolo[3,4-f]isoindole-1,3(2H,5H)-dione]: “C (“C”: >100 nM)”; for `C[C@@H]1Cc2c([nH]c3ccccc23)[C@@H](c2c(F)cc(C3CCN(C[C@H]4CC[C@H](N5Cc6cc7c(cc6C5)C(=O)N(C5CCC(=O)NC5=O)C7=O)CC4)CC3)cc2F)N1CC(F)F` (stereo partly drawn) [Compound B96, 6-((1R,4r)-4-((4-(4-((1R,3R)-2-(2,2-difluoroethyl)-3-methyl-2,3,4,9-tetrahydro-1H-pyrido[3,4-b]indol-1-yl)-3,5-difluorophenyl)piperidin-1-yl)methyl)cyclohexyl)-2-(2,6-dioxopiperidin-3-yl)-6,7-dihydropyrrolo[3,4-f]isoindole-1,3(2H,5H)-dione]: “C (“C”: >100 nM)”. As to `C[C@@H]1Cc2c([nH]c3ccccc23)[C@@H](c2c(F)cc(C(=O)N3CCC4(CC3)CC(CN3Cc5cc6c(cc5C3)C(=O)N(C3CCC(=O)NC3=O)C6=O)C4)cc2F)N1CC(F)F` (stereo partly drawn) [Compound B97, 6-((7-(4-((1R,3R)-2-(2,2-difluoroethyl)-3-methyl-2,3,4,9-tetrahydro-1H-pyrido[3,4-b]indol-1-yl)-3,5-difluorobenzoyl)-7-azaspiro[3.5]nonan-2-yl)methyl)-2-(2,6-dioxopiperidin-3-yl)-6,7-dihydropyrrolo[3,4-f]isoindole-1,3(2H,5H)-dione], the “Traditional Western Degradation Potency” value was “C (“C”: >100 nM)”.

`C[C@@H]1Cc2c([nH]c3ccccc23)[C@@H](c2c(F)cc(CN3CCC4(CC3)CC(CN3Cc5cc6c(cc5C3)C(=O)N(C3CCC(=O)NC3=O)C6=O)C4)cc2F)N1CC(F)F` (stereo partly drawn) [Compound B98, 6-((7-(4-((1R,3R)-2-(2,2-difluoroethyl)-3-methyl-2,3,4,9-tetrahydro-1H-pyrido[3,4-b]indol-1-yl)-3,5-difluorobenzyl)-7-azaspiro[3.5]nonan-2-yl)methyl)-2-(2,6-dioxopiperidin-3-yl)-6,7-dihydropyrrolo[3,4-f]isoindole-1,3(2H,5H)-dione]: the “Traditional Western Degradation Potency” value is “C (“C”: >100 nM)”.

Take `C[C@@H]1Cc2c([nH]c3ccccc23)[C@@H](c2c(F)cc(C(=O)N3CCC4(CCC(CN5Cc6cc7c(cc6C5)C(=O)N(C5CCC(=O)NC5=O)C7=O)CC4)CC3)cc2F)N1CC(F)F` (stereo partly drawn) [Compound B99, 6-((3-(4-((1R,3R)-2-(2,2-difluoroethyl)-3-methyl-2,3,4,9-tetrahydro-1H-pyrido[3,4-b]indol-1-yl)-3,5-difluorobenzoyl)-3-azaspiro[5.5]undecan-9-yl)methyl)-2-(2,6-dioxopiperidin-3-yl)-6,7-dihydropyrrolo[3,4-f]isoindole-1,3(2H,5H)-dione]: the “Traditional Western Degradation Potency” value is “C (“C”: >100 nM)”. Take `C[C@@H]1Cc2c([nH]c3ccccc23)[C@H](c2c(F)cc(C(=O)N3CCC4(CCC(CN5Cc6cc7c(cc6C5)C(=O)N(C5CCC(=O)NC5=O)C7=O)CC4)CC3)cc2F)N1CC(F)F` (stereo partly drawn) [Compound B100, 6-((3-(4-((1S,3R)-2-(2,2-difluoroethyl)-3-methyl-2,3,4,9-tetrahydro-1H-pyrido[3,4-b]indol-1-yl)-3,5-difluorobenzoyl)-3-azaspiro[5.5]undecan-9-yl)methyl)-2-(2,6-dioxopiperidin-3-yl)-6,7-dihydropyrrolo[3,4-f]isoindole-1,3(2H,5H)-dione]: the “Traditional Western Degradation Potency” value is given as “C (“C”: >100 nM)”. On to `C[C@@H]1Cc2c([nH]c3ccccc23)[C@@H](c2c(F)cc(CN3CCC4(CCC(CN5Cc6cc7c(cc6C5)C(=O)N(C5CCC(=O)NC5=O)C7=O)CC4)CC3)cc2F)N1CC(F)F` (stereo partly drawn) [Compound B101, 6-((3-(4-((1R,3R)-2-(2,2-difluoroethyl)-3-methyl-2,3,4,9-tetrahydro-1H-pyrido[3,4-b]indol-1-yl)-3,5-difluorobenzyl)-3-azaspiro[5.5]undecan-9-yl)methyl)-2-(2,6-dioxopiperidin-3-yl)-6,7-dihydropyrrolo[3,4-f]isoindole-1,3(2H,5H)-dione], for which the “Traditional Western Degradation Potency” value was “C (“C”: >100 nM)”.

In the case of `C[C@@H]1Cc2c([nH]c3ccccc23)[C@H](c2c(F)cc(CN3CCC4(CCC(CN5Cc6cc7c(cc6C5)C(=O)N(C5CCC(=O)NC5=O)C7=O)CC4)CC3)cc2F)N1CC(F)F` (stereo partly drawn) [Compound B102, 6-((3-(4-((1S,3R)-2-(2,2-difluoroethyl)-3-methyl-2,3,4,9-tetrahydro-1H-pyrido[3,4-b]indol-1-yl)-3,5-difluorobenzyl)-3-azaspiro[5.5]undecan-9-yl)methyl)-2-(2,6-dioxopiperidin-3-yl)-6,7-dihydropyrrolo[3,4-f]isoindole-1,3(2H,5H)-dione], the “Traditional Western Degradation Potency” value is “C (“C”: >100 nM)”.
